Several values for one entry are separate records, joined by “and”; a condition that tells them apart may be missing. Equal entries are not always repeated.
Experiments:
[1] = test system: irritation-induced reduction in bladder capacity; test: Dilute Acetic Acid Model-Rats (filling cystometry); assay type: in vivo, rat; conditions: intraduodenal
Text: The abdominal cavity was moistened with saline and closed by covering with a thin plastic sheet in order to maintain access to the bladder for emptying purposes. Fine silver or stainless steel wire electrodes were inserted into the external urethral sphincter (EUS) percutaneously for electromyography (EMG).
P<0.050 was considered significant.

[2] = test system: reduction in bladder capacity seen following continuous infusion of dilute acetic acid; test: Dilute Acetic Acid Model-Cats; assay type: in vivo, cat; conditions: 3 point dose response, 3.0, 10.0 or 30 mg/ml dosed by body weight; P<0.0103; individual significance at 30 mg/kg
Description: Six alpha-chloralose anesthetized (50-100 mg/kg) normal female cats (2,5-3.5 kg; Harlan) were utilized in this study.
Female cats (2.5-3.5 kg; Harlan) had their food removed the night before the study. The following morning, the cats were anesthetized with isoflurane and prepped for surgery using aseptic technique. Polyethylene catheters were surgically placed to permit the measurement of bladder pressure, urethral pressure, arterial pressure, respiratory rate as well as for the delivery of drugs. Fine wire electrodes were implanted alongside the external urethral anal sphincter. […] During control cystometry, saline was slowly infused into the bladder (0.5-1.0 ml/min) for 1 hour. The control cystometry was followed by 0.5% acetic acid in saline for the duration of the experiment.
Data was analyzed using a non-parametric One-Way ANOVA (Friedman Test) with the post-hoc Dunn's multiple comparison t test. P<0.05 was considered significant.

[3] = test system: acetic acid-induced colonic hypersensitivity; test: Visceromotor response to colorectal distension in acetic acid-sensitized rats
Description: The visceromotor behavioral response to colorectal distension was measured by counting the number of abdominal contractions recorded by a strain gauge sutured onto the abdominal musculature as described in Gunter et al., Physiol. […] A 5 cm latex balloon catheter inserted via the anal canal into the colon was used for colorectal distensions. Constant pressure tonic distensions were performed in a graded manner (15, 30 or 60 mmHg) and were maintained for a period of 10 min and the numbers of abdominal muscle contractions were recorded to measure the level of colonic sensation. A 10 min recovery was allowed between distensions.
J. Physiol. […] In the present study, a low concentration of acetic acid (1.5 ml, 0.6%) was administered intracolonically to sensitize the colon without causing histological damage to the colonic mucosa as described in previous studies (Gunter et al., supra).
Injection volume was 0.2 mL using 100% propylene glycol as the vehicle. Three consecutive colorectal distensions at 15, 30 or 60 mmHg applied at 10-min intervals were recorded. Visceromotor responses were evaluated as the number of abdominal muscle contractions recorded during the 10-min periods of colorectal distension.
Adult male rats were used in the study. […] Specifically, rats were anesthetized with Isoflurane (2%) and were instrumented with a strain gauge force transducer for recording of abdominal muscle contractions. A latex balloon and catheter were inserted 11 cm into the colon. The animals were allowed a 30-min period to completely recover from the anesthesia and were then subjected to intracolonic infusion of acetic acid (1.5 mL, 0.6%). An additional 30-min period was allowed for sensitization of the colon. […] The protocol for colorectal distension was initiated 30-min post drug administration. After a basal reading of the number of abdominal contractions with the balloon inserted but not distended, three consecutive 10-min lasting colorectal distensions at 15, 30, and 60 mmHg were applied at 10-min intervals. Colorectal sensitivity was evaluated by counting the number of reflex abdominal contractions (i.e. the visceromotor response) observed within each distension period.
The visceromotor behavioral response to colorectal distension was measured by counting the number of abdominal contractions recorded by a strain gauge sutured onto the abdominal musculature as previously described Gunter et al., referenced above. Colorectal distensions were carried out utilizing a 5 cm latex balloon catheter inserted into the colon via the anal canal. Constant pressure tonic distensions were performed in a graded manner, i.e., the pressure was increased to the desired level of 15, 30, or 60 mmHg and then maintained for a period of 10 minutes during which the number of abdominal contractions were recorded to measure the level of colonic sensation. Ten minute recovery periods were allowed following each distension.

[4] = test system: stress-induced accelerated colonic transit; test: Water avoidance stress (WAS) model of increased colonic transit, fecal pellet output; assay type: in vivo, rat; conditions: 3, 10 or 30 mg/kg i.p.
Text: At the end of the 1-hour stress period, the fecal pellets were counted and recorded. WAS causes an acceleration of colonic transit, which can be quantified by counting the number of fecal pellets, produced during the stress procedure. Rats were placed for 1-hour into a stress chamber onto a raised platform 7.5 cm×7.5 cm×9 cm (L×W×H) in the center of a stress chamber filled with room temperature water 8 cm in depth. The stress chamber was constructed from a rectangular plastic tub (40.2×60.2×31.2 cm). […] Ondansetron was supplied from APIN Chemicals LTD. […] MCI-225 was provided by Mitsubishi Pharma Corp. All drugs were dissolved in a vehicle of 100% propylene glycol (1,2-propanediol) by sonicating for a period of 10 minutes. Propylene glycol was obtained from Sigma Chemical Co. […] All drugs and the vehicle were administered as an i.p. injection in a volume of 0.2 mL.

small intestinal transit = test: Small Intestinal Transit Rodent Model (charcoal meal); assay type: in vivo, rat; conditions: for Small intestinal transit, Mean (% of total length): 15 min test period
Description: Following an overnight fast, rats were brought to the laboratory in their home cages and received an i.p. injection of one of the following: […] Control rats received no treatment. The treated rats were placed back in the home cages and after 30 min, were fed a 2 mL charcoal meal via an oral gavage. Small intestinal transit was measured following 15 min test-period. Each rat was placed briefly in a glass chamber with IsoFlo for anesthesia and sacrificed. The stomach and the small intestine were removed and the total length of the small intestine was measured. Transit was then measured as the distance that the charcoal meal had traveled along the small intestine and expressed as % of the total length. Animals were randomly assigned to experimental groups and experiments were performed as illustrated in Table 11. Small intestinal transit in rats was investigated by the passage of a charcoal meal along the small intestine during a defined time period (15-min). The animals were deprived of food for 12-16 hrs prior to the experiments. Rats were given a charcoal meal (a mixture of charcoal, gum arabic, and distilled water) as a 2 mL oral gavage and were sacrificed after a 15-min test period. The distance traveled by the charcoal meal was quantified as a percent of the small intestinal length, using the following equation: Transit (%)=cm traveled by meal/cm total small intestinal length×100 […]

[5] = test system: retching and vomiting induced by cisplatin; test: Cisplatin-induced emesis in the ferret; assay type: in vivo, ferret (Mustela putorius furo)
Description: Following administration of the cisplatin and either MCI-225, ondansetron or vehicle alone, the occurrence of retching and vomiting was monitored for a period of 6 hours. […] Vomiting was defined as the forceful oral expulsion of upper gastrointestinal contents. The latency of the retching or vomiting response and the number of episodes were recorded for each animal and summarized for each experimental group (Wright et al., Infect. […] Following one hour of acclimation to the observation cage, ferrets received an intraperitoneal (i.p.) injection of cisplatin (5 mg/kg in 5 mL) followed in about 2 minutes by i.p. injection of a single dose of MCI-225 or ondansetron (Rudd and Naylor, Eur. J. Pharmacol., 322: 79-82 (1997)). […] Each animal received a single-dose drug treatment. In addition, three animals received an initial dose (30 mg/kg i.p.) and a second MCI-225 injection (30 mg/kg i.p.) 180 minutes following the initial dose. […] All groups were randomized.

[6] = 30 mg/kg b.i.d, second dose 180 minutes after the first

Q: What does the source list for “4-(2-fluorophenyl)-6-methyl-2-(piperazin-1-yl)thieno[2,3-d]pyrimidine hydrochloride [MCI-225]”?
A: Bladder capacity versus AA/Veh 3 ([1]; 10 mg/kg, p<0.05 Dunn's test): significantly higher than AA/Veh 3; Bladder capacity versus AA/Veh 3 ([1]; 30 mg/kg, p<0.001 Dunn's test): significantly higher than AA/Veh 3; Bladder capacity ([1]; 3-30 mg/kg, n=8, p=0.0005 by Friedman test): dose-dependent increase; Bladder capacity following acetic acid irritation [2]: significant dose-dependent increase; Number of abdominal contractions in response to colorectal distension, compared to the vehicle ([3]; 10 mg/kg i.p., 15, 30 and 60 mmHg): significant decrease; Effect on visceromotor response relative to lower dose ([3]; 30 mg/kg i.p.): less effective; Animals in which the visceromotor response to CRD was eliminated ([3]; 30 mg/kg i.p., n=6): 50 % of the animals; WAS-induced fecal pellet output during 1 hour [4]: significant dose-dependent inhibition; Small intestinal transit, Mean (% of total length) (small intestinal transit; 3 mg/kg i.p.): 30.1%; Small intestinal transit, Mean (% of total length) (small intestinal transit; 10 mg/kg i.p., hydrochloride): 4.2±2.6% and 4.2%; Small intestinal transit, Mean (% of total length) (small intestinal transit; 30 mg/kg i.p.): 8.8%; Effect on small intestinal transit compared to the vehicle (small intestinal transit; 3, 10 or 30 mg/kg i.p.): dose-dependent inhibition; Latency ([5]; 1 mg/kg i.p.): 186 ± 35 min; Retches (360 min) ([5]; 1 mg/kg i.p.): 30.4 ± 9.1; Total Events ([5]; 1 mg/kg i.p.): 32.9 ± 9.8; Vomits (360 min) ([5]; 1 mg/kg i.p.): 2.5 ± 0.7; Latency ([5]; 10 mg/kg i.p.): 192 ± 57 min; Retches (360 min) ([5]; 10 mg/kg i.p.): 22.9 ± 10.3; Total Events ([5]; 10 mg/kg i.p.): 25.5 ± 11.1; Vomits (360 min) ([5]; 10 mg/kg i.p.): 2.6 ± 1.0; Latency [5, 6]: 360 ± 0 min; Retches (360 min) [5, 6]: 0.0 ± 0.0; Total Events [5, 6]: 0.0 ± 0.0; Vomits (360 min) [5, 6]: 0.0 ± 0.0; Latency ([5]; 30 mg/kg i.p.): 287 ± 38 min; Retches (360 min) ([5]; 30 mg/kg i.p.): 3.3 ± 2.2; Total Events ([5]; 30 mg/kg i.p.): 4.0 ± 2.6; Vomits (360 min) ([5]; 30 mg/kg i.p.): 0.7 ± 0.5; Retches and vomits induced by cisplatin ([5]; 1, 10 or 30 mg/kg i.p.): dose-dependent reduction; Emetic response ([5]; two doses of 30 mg/kg, b.i.d at a 180-min interval): eliminated

Reference: patent US20070254891A1, “Crystalline forms of 4-(2-fluorophenyl)-6-methyl-2-(piperazin-1-yl)thieno[2,3-d]pyrimidine” (Dynogen Pharmaceuticals, Inc., priority 2006, published 2007)
